Laboratory results from paper PMC8333309, “Mechanism of LolCDE as a molecular extruder of bacterial triacylated lipoproteins” (Nature Communications, 2021).

Target: T1, LolCDE (Escherichia coli, UniProt P75957)
T1 construct: gene lolD; co-expressed in E. coli BL21(DE3); purified in DDM, reconstituted into MSP1D1/POPG nanodiscs; co-purifies with lipoprotein; with Lipoprotein-releasing system transmembrane protein LolC; Lipoprotein-releasing system transmembrane protein LolE
T1 sequence (P75957 1-233): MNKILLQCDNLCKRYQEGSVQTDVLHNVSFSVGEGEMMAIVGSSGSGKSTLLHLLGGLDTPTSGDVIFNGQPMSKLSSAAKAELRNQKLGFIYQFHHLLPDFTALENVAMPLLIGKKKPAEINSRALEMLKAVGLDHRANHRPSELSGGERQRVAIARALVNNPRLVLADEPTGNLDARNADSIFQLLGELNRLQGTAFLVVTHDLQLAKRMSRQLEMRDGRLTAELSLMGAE
T1 sequence (P0ADC3 1-399 partner): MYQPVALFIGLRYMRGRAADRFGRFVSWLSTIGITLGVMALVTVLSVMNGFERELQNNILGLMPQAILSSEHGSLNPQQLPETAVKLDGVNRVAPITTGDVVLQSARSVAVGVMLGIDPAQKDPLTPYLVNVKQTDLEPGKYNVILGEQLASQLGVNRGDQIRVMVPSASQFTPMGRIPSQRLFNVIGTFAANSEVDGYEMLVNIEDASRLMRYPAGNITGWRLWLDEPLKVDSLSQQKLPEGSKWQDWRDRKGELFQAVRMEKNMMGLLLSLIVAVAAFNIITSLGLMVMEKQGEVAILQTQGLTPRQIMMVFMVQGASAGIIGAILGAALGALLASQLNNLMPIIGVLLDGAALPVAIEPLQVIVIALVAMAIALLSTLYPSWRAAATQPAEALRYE
T1 sequence (P75958 2-414 partner): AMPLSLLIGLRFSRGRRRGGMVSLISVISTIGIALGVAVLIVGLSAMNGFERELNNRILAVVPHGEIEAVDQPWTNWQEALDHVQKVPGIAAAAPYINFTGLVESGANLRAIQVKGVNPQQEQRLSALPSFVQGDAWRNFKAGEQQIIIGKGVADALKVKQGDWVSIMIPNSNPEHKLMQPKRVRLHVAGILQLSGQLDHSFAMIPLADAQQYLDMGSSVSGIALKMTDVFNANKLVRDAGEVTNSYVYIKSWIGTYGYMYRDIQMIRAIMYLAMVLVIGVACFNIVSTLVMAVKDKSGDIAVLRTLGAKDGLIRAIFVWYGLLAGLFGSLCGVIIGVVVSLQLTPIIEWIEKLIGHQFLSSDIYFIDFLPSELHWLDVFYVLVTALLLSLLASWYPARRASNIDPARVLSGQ
Test: colorimetric phosphate-release ATPase assay
Type: biochemical
Conditions: LolCDE in nanodiscs; 4 mM ATP, 4 mM MgCl2, pH 8, 37 °C; traps ADP-vanadate in the ATP site

With `[O]=[V]([OH])([OH])[OH]` [orthovanadate] the “% inhibition at 0.1 mM” value was ~ 90%.
